Experimental data published in US20060258598A1, “Alpha-keto carbonyl calpain inhibitors” (priority 2003, published 2006).

Tests used:
[1] = test system: cellular calpains in C2C12 myoblasts; assay: Calpain inhibition assay in C2C12 myoblasts; type: cell-based; settings: 2 h incubation, calcium ionophore Br-A-23187, read-out: Calp I IC50 Myoblast
Method in brief: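 Confluent C2C12 myoblasts in fusion medium (DMEM, 5% horse serum) exposed to compound for 2 h at 37 °C, then loaded with 400 μM Suc-Leu-Tyr-AMC for 20 min at room temperature in buffer with 4 mM CaCl2, HEPES pH 7.25. Calpains activated by Br-A-23187 ionophore (20 μM in added buffer); AMC fluorescence read each minute for 60 min at 37 °C to derive IC50.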

[2] = target: T1, 20S Proteasome (Oryctolagus cuniculus, UniProt G1T4Q9); assay: 20S Proteasome assay; type: biochemical, Rabbit; settings: substrate Suc-Leu-Leu-Val-Tyr-AMC; read-out: 20S Prot IC50
T1 sequence (G1T4Q9 1-263): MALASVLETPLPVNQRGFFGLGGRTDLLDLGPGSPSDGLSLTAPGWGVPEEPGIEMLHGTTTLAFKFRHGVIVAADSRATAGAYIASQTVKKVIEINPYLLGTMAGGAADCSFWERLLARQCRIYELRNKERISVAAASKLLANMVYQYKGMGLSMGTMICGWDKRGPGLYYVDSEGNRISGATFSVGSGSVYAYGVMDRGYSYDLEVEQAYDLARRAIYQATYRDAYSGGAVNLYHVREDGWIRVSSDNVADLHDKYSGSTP
Procedure: 25 μl of a reaction buffer containing 400 μM of the fluorogenic substrate Suc-Leu-Leu-Val-Tyr-AMC (Bachem) are dispensed per well of a white microtiter plate. Test compounds dissolved in 0.5 μl DMSO are added. To start the reaction; 25 μl of reaction buffer containing 35 ng of enzyme (20S Proteasome, Rabbit, Calbiochem) are added. The increase in fluorescence (excitation at 360 nm; emission at 440 nm) is measured over 30 min at 30° C. at 30″. The IC50's are then determined from the slopes.

[3] = test system: Primary fibroblasts from donors with Friedreich Ataxia (FRDA); assay: BSO assay (cell viability under BSO-induced oxidative stress); type: cell-based, human; settings: Homo sapiens, Fibroblast, 24 h preincubation, 1 mM BSO
Method in brief: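 FRDA patient primary fibroblasts were pretreated with compounds for 24 h, then exposed to 1 mM BSO (final) until toxicity appeared in BSO-only controls (typically 16–48 h). Viability was read by calcein AM (1.2 μM)/ethidium homodimer (4 μM) staining, 60 min RT, fluorescence 485/525 nm.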

- IC50 [1]: 500 nM
- IC50 [2]: 40 nM
Structure (SMILES): CCNC(=O)C(=O)[C@H](Cc1ccc(Br)cc1)NC(=O)[C@H](CC(C)C)NC(=O)CCCCC1CCSS1 (stereo partly drawn) [Example 64]
- EC50 [3]: 1000 nM
